Assay results as given in publication PMC6421522, “Designing Dual Inhibitors of Anaplastic Lymphoma Kinase (ALK) and Bromodomain-4 (BRD4) by Tuning Kinase Selectivity” (Journal of Medicinal Chemistry, 2019).

How the values were obtained:
PLK-1 = molecular target: T1, PLK-1 (Homo sapiens, UniProt P53350); experiment: PLK-1 Z-LYTE activity assay (SelectScreen); type: biochemical; settings: for fold decrease of PLK-1 activity/potency: relative to starting compound BI-2536
T1 construct: purchased Thermo Fisher Scientific (SelectScreen service)

ALK^F1174L = molecular target: T2, ALK^F1174L (Homo sapiens, UniProt Q9UM73, F1174L); experiment: LanthaScreen Eu kinase binding assay
T2 construct: purchased Carna Biosciences

ALK WT = ALK WT (Homo sapiens, UniProt Q9UM73); experiment: Biochemical ALK WT IC50; type: binding; settings: geometric mean
HeLa cells = experiment: Mitotic arrest and mitotic markers in HeLa cells (Western blot); type: cell-based; settings: HeLa cells, Western blot
Procedure: Protein extracts of cells were prepared by lysis in radioimmunoprecipitation assay buffer (Sigma) supplemented with protease inhibitors (complete protease inhibitor cocktail, Roche). Protein extracts (25 μg) were separated by sodium dodecyl sulfate-polyacrylamide gel electrophoresis and transferred onto poly(vinylidene difluoride) membranes using the Trans-Blot Turbo transfer system (BioRad). After blocking with 5% bovine serum albumin in PBS with 0.1% Tween-20 for 30 min, the membrane was incubated with primary antibodies for 1 h at room temperature. Horseradish peroxidase-linked secondary antibodies were incubated 30 min at room temperature followed by enhanced chemiluminescence (ECL) detection (ECL Western blot substrate, Pierce).
Primary antibodies were obtained from the following sources: PLK-1 (05-844) and phosphohistone H3 (Ser10) (05806) from Millipore; pPlk1-T210 (5472) from Cell Signaling; pPlk1-S137 (21738) from Abcam; and cyclin B1 (GNS1) and β-actin (A2228) from Sigma-Aldrich served as loading control.

T1 sequence (P53350 whole entry): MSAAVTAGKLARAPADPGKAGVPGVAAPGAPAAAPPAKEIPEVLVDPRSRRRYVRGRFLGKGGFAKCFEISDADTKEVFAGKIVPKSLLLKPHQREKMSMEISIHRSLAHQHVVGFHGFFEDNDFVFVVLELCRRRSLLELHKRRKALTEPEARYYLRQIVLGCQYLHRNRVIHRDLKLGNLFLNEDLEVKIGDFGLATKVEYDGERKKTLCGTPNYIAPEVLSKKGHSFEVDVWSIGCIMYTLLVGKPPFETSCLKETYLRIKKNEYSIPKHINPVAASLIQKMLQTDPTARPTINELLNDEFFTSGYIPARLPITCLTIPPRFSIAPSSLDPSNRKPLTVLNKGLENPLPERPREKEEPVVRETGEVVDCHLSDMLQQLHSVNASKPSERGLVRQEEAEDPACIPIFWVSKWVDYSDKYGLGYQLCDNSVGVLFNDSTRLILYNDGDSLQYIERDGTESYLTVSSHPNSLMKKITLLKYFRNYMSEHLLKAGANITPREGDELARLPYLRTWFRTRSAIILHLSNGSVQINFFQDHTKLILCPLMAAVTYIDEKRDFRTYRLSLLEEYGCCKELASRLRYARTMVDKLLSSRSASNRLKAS
T2 sequence (Q9UM73 19-1620 F1174L): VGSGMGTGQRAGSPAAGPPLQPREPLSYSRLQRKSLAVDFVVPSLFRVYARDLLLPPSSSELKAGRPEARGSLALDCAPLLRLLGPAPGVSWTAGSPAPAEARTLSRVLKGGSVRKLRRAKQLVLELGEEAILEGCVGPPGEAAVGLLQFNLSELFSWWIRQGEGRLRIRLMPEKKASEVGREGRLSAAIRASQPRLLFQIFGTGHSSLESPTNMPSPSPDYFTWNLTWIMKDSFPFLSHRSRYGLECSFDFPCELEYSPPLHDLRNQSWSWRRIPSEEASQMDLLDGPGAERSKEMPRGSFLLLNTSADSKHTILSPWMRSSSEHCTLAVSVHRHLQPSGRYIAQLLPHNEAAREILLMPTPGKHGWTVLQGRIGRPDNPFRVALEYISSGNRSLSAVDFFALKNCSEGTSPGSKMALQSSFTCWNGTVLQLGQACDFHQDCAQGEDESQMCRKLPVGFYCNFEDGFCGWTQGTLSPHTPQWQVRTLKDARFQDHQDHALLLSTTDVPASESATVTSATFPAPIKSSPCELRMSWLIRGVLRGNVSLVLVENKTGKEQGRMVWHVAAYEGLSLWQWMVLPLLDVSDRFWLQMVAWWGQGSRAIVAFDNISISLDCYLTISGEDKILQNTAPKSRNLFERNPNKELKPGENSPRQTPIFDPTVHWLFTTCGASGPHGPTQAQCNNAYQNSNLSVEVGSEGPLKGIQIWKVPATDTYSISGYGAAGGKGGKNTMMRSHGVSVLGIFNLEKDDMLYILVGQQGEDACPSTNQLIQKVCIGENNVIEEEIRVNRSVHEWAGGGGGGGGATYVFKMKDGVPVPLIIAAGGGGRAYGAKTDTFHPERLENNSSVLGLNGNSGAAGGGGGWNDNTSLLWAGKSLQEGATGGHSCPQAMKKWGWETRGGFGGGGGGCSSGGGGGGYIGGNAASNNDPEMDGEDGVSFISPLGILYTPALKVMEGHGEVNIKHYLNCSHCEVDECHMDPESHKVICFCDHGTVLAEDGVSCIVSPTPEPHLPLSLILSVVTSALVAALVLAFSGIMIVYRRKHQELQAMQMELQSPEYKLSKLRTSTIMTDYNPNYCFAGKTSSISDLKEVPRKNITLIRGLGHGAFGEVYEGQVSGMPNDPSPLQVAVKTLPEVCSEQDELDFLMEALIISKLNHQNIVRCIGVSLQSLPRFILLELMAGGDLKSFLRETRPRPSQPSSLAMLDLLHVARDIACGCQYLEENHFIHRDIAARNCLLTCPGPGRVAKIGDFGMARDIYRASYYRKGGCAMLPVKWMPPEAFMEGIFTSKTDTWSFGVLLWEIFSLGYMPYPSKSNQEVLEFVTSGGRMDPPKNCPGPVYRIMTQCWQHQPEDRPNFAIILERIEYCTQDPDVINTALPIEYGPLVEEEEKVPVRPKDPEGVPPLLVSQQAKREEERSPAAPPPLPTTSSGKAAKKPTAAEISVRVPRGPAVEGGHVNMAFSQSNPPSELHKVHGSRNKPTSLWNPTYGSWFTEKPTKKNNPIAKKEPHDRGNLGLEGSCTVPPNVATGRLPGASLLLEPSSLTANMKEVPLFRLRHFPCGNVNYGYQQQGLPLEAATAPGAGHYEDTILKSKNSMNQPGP
Sequence of ALK WT (Q9UM73 19-1620): as the sequence (Q9UM73 19-1620 F1174L) above, with L1156F counted along it

Row | Compound | fold decrease of PLK-1 activity/potency (PLK-1) | also measured
1 | CCOc1cc(C2CCN(C)CC2)ccc1Nc1ncc2c(n1)N(Cc1cccc(Br)c1)[C@H](CC)C(=O)N2C [16h, (R)-8-(3-Bromobenzyl)-2-((2-ethoxy-4-(1-methylpiperidin-4-yl)phenyl)amino)-7-ethyl-5-methyl-7,8-dihydropteridin-6(5H)-one] | 100–200 fold | –
2 | CCOc1cc(C2CCN(C)CC2)ccc1Nc1ncc2c(n1)N(Cc1cccc(C#N)c1)[C@H](CC)C(=O)N2C [23b, (R)-3-((2-((2-Ethoxy-4-(1-methylpiperidin-4-yl)phenyl)amino)-7-ethyl-5-methyl-6-oxo-6,7-dihydropteridin-8(5H)-yl)methyl)benzonitrile] | > 700 fold | ALK selectivity over PLK-1 (PLK-1; biochemical IC50s ALK^F1174L vs PLK-1): 5 fold
3 | CCOc1cc(C2CCN(C)CC2)ccc1Nc1ncc2c(n1)N(Cc1ccccc1)[C@H](CC)C(=O)N2C [16i, (R)-8-Benzyl-2-((2-ethoxy-4-(1-methylpiperidin-4-yl)phenyl)amino)-7-ethyl-5-methyl-7,8-dihydropteridin-6(5H)-one] | 100–200 fold | fold increase in ALK^F1174L potency (ALK^F1174L): 2 fold; IC50 (ALK WT): 120 ± 11 nM
4 | CCOc1cc(C(=O)NC2CCN(C)CC2)ccc1Nc1ncc2c(n1)N(Cc1cccc(Br)c1)[C@H](CC)C(=O)N2C [16f, (R)-4-((8-(3-Bromobenzyl)-7-ethyl-5-methyl-6-oxo-5,6,7,8-tetrahydropteridin-2-yl)amino)-3-ethoxy-N-(1-methylpiperidin-4-yl)benzamide] | 30–40 fold | –
5 | CC[C@@H]1C(=O)N(C)c2cnc(Nc3ccc(C(=O)NC4CCN(C)CC4)cc3OC)nc2N1C1CCCC1 [BI-2536, reference compound] | – | concentration inducing mitotic arrest and increased PLK-1, cyclin B1, phosphohistone H3 (HeLa cells): ≤ 50 nM
6 | CCOc1cc(C(=O)NC2CCN(C)CC2)ccc1Nc1ncc2c(n1)N(C1CCCC1)CC(=O)N2C [16e, 4-((8-Cyclopentyl-5-methyl-6-oxo-5,6,7,8-tetrahydropteridin-2-yl)amino)-3-ethoxy-N-(1-methylpiperidin-4-yl)benzamide] | – | fold reduction of ALK^F1174L potency (ALK^F1174L; on removal of the (R)-Et group): 3 fold
7 | CCOc1cc(C2CCN(C)CC2)ccc1Nc1ncc2c(n1)N(Cc1sccc1C)[C@H](CC)C(=O)N2C [16j, (R)-2-((2-Ethoxy-4-(1-methylpiperidin-4-yl)phenyl)amino)-7-ethyl-5-methyl-8-((3-methylthiophen-2-yl)methyl)-7,8-dihydropteridin-6(5H)-one] | – | IC50 (ALK WT): 89 ± 4 nM
8 | CC[C@@H]1C(=O)N(C)c2cnc(Nc3ccc(C4CCN(C)CC4)cc3OC)nc2N1C1CCCC1 [16a, (R)-8-Cyclopentyl-7-ethyl-2-((2-methoxy-4-(1-methylpiperidin-4-yl)phenyl)amino)-5-methyl-7,8-dihydropteridin-6(5H)-one] | four-fold | –
9 | CCOc1cc(C(=O)NC2CCN(C)CC2)ccc1Nc1ncc2c(n1)N(Cc1ccccc1)[C@H](CC)C(=O)N2C [16g, (R)-4-((8-Benzyl-7-ethyl-5-methyl-6-oxo-5,6,7,8-tetrahydropteridin-2-yl)amino)-3-ethoxy-N-(1-methylpiperidin-4-yl)benzamide] | 30–40 fold | –
